Test results: ChEMBL document CHEMBL1138245, “Discovery of N1-(6-chloroimidazo[2,1-b][1,3]thiazole-5-sulfonyl)tryptamine as a potent, selective, and orally active 5-HT(6) receptor agonist” (J Med Chem, 2007)

Biological target: 5-hydroxytryptamine receptor 6 (Homo sapiens, UniProt P50406)
Test: Displacement of [3H]LSD from human 5HT6 receptor expressed in HeLa cells
Format: cell-based

Chain of 5-hydroxytryptamine receptor 6 (P50406 whole entry): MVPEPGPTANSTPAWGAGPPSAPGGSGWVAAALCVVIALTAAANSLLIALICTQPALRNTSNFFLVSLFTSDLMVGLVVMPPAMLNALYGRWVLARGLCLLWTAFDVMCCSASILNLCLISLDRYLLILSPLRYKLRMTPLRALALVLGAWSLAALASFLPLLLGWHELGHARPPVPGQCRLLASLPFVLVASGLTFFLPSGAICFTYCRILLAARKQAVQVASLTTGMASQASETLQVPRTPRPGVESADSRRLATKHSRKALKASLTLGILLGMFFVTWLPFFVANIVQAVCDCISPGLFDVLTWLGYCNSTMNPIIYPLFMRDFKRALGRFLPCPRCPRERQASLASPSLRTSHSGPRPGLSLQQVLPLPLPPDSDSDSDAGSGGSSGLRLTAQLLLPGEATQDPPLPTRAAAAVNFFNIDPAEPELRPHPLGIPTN

NCCc1cn(S(=O)(=O)c2cc(Cl)c(Cl)s2)c2ccccc12 was tested, and the Ki was 31 nM.
